Measurements reported in patent publication US20250032484A1, “THERAPEUTIC TARGETS AND AGENTS FOR THE TREATMENT OF POSTTRAUMATIC STRESS DISORDER” (priority 2021, published 2025).

System: VA patients with PTSD (PTSD symptoms, PTSD Checklist)
Assay: TreeScan nested case-control study of medications associated with PTSD symptom improvement (PTSD Checklist) in VA records
Assay type: in vivo, human
Conditions: for association with PTSD symptom improvement, in words (statistical alert at P<0.1): overall sample
Method: Study Sample and Data Sources. A nested case-control study was conducted within a previously established retrospective cohort that included all VA users with a clinical diagnosis of PTSD (International Classification of Diseases [ICD]-9:309.81, ICD-10: F43.1x) from Oct. 1, 1999 through Sep. 30, 2019 (Shiner et al. (2021) J Eval Clin Pract.). The data source contains information on services use, clinical diagnoses, filled prescriptions, and patient-reported outcome measures (PROMs) for PTSD using the PTSD Checklist (PCL) for these patients. This study was approved by the Veterans Institutional Review Board of Northern New England.
The goal of the current study was to evaluate any filled medications associated with PTSD symptom improvement, and as such, the analytic sample for this study included only patients with PROMs that were at least 30 days apart. 30 days was selected to allow for medications to be taken for at least one full course (typically 28 days). Patients with PROMs more than 365 days apart were excluded as these are unlikely to provide an accurate assessment of PTSD symptom change between the two time points. For patients who had two overlapping PROM intervals, those closest to 84 days in length were chosen to emulate typical PTSD medication efficacy trials (Watts et al. (2013) J Clin Psychiatry. 74: e541-550). When a patient had two or more overlapping intervals at exactly 84 days, the historically earliest interval was chosen. If patients had multiple non-overlapping intervals, all were included. Patients who met the selection criteria for PTSD in the original cohort and had at least one PROM pair where they started a new medication (defined below) constituted the overall analytic sample for the current study.
PTSD Improvement Cases and No Improvement Controls. In order to maximize the number of patients with available symptomatic measurement, two different versions of a PROM for PTSD were integrated into a single dataset (Shiner et al. (2021) J Eval Clin Pract.). The two PROMs were the PCL versions aligned to the Diagnostic and Statistical Manual of Mental Disorders (DSM), version IV and Version 5 (APA (2000): Diagnostic and Statistical Manual of Mental Disorders. 4th Edition. Text Revision: DSM-IV-TR. Arlington, VA: American Psychiatric Association: APA (2013): Diagnostic and Statistical Manual of Mental Disorders: Fifth Edition (DSM-5). Washington, D.C.: American Psychiatric Association), which will heretofore be called the PCL-IV and the PCL-5 (Blevins et al. (2015) J Trauma Stress. 28:489-498: Weathers et al. (1993) Trauma. Coping. and Adaptation. San Antonio, Texas: International Society for Traumatic Stress Studies, 9th Annual Meeting). […] A validated crosswalk (ICC=0.96) was used to convert all values to PCL-5 scoring (Moshier et al. (Under review): An empirical crosswalk for the PTSD Checklist: Translating DSM-IV to DSM-5). PTSD improvement cases were defined by a clinically meaningful improvement, which was a decrease of 15 points or more between assessment points (Lee et al. (2019) Reliable Change Index and Clinically Significant Margins for the CAPS-5 and PCL-5 among Veterans. Boston, MA: International Society for Traumatic Stress Studies, 35th Annual Meeting). […] Thus, the no PTSD improvement control group was defined as worsening of symptoms or reductions of up to 7 points on the PCL. Improvements between 8 and 14 points were of uncertain clinical significance and were therefore excluded.
Identification and Classification of New Medications. The predictors of interest were initiation of medications for any indication. Candidate agents included those that were started in the interval between PCL pairs and continued for at least a 28-day supply. When patients started multiple medications between a given PCL pair, they contributed information for each of the medications in the tree.

[1] = all patients in the overall sample
[2] = baseline PCL 38 or higher, PTSD diagnosis within 30 days, without any concurrent evidence-based treatment
[3] = baseline PCL score of 38 or higher and PTSD diagnosis within 30 days
[4] = case = improved by 15 or more points on PTSD Checklist, all patients in the overall sample
[5] = improvement in PTSD, all patients in the overall sample
[6] = overall sample without any concurrent evidence-based treatment

Compound | EXP = Expected Cases [1] | EXP = Expected Cases [2] | O:E = Observed Cases over Expected Cases [2] | OBS = Observed Cases [2] | EXP = Expected Cases [3] | O:E = Observed Cases over Expected Cases [3] | OBS = Observed Cases [3] | OBS = Observed Cases [4] | O:E = Observed Cases over Expected Cases [5] | association with PTSD symptom improvement, in words (statistical alert at P<0.1) | EXP = Expected Cases [6] | O:E = Observed Cases over Expected Cases [6] | OBS = Observed Cases [6] | O:E = Observed Cases over Expected Cases (improvement in PTSD, all patients in the overall sample, listed as velpatasvir) | O:E = Observed Cases over Expected Cases (improvement in PTSD, all patients in the overall sample, listed as pibrentasvir)
O=c1n(CCCN2CCN(c3cccc(Cl)c3)CC2)nc2ccccn12 [Trazodone] | 4061 | 893 | 1.12 | 992 | 3396 | 1.07 | 3610 | 4308 | 1.06 | similarly small associations | 1157 | 1.1 | 1272 | – | –
CN(C)CCC[C@@]1(c2ccc(F)cc2)OCc2cc(C#N)ccc21 [Escitalopram] | – | – | – | – | – | – | – | – | – | – | 474 | – | 558 | – | –
COC(=O)N[C@H](C(=O)N1CC2(CC2)C[C@H]1c1nc(-c2ccc3c(c2)C(F)(F)c2cc(-c4ccc5nc([C@@H]6[C@H]7CC[C@H](C7)N6C(=O)[C@@H](NC(=O)OC)C(C)C)[nH]c5c4)ccc2-3)c[nH]1)C(C)C [ledipasvir] | – | – | – | – | – | – | – | – | – | Neither sofosbuvir nor ledipasvir were associated with a significantly higher than expected improvement | – | – | – | – | –
COC[C@H]1C[C@@H](c2ncc(-c3ccc4c(c3)COc3cc5c(ccc6[nH]c([C@@H]7CC[C@H](C)N7C(=O)[C@@H](NC(=O)OC)C(C)C)nc65)cc3-4)[nH]2)N(C(=O)[C@H](NC(=O)OC)c2ccccc2)C1 [Velpatasvir, velpatasvir] | 11 | – | – | – | 10 | 2.17 | 21 | 24 | 2.10 | – | – | – | – | 2.10 | –
CN(C)CCCC1(c2ccc(F)cc2)OCc2cc(C#N)ccc21 (stereo not shown) [Citalopram] | 1508 | 632 | 1.25 | 785 | 1202 | 1.10 | 1315 | 1653 | 1.10 | similarly small associations | 814 | 1.28 | 1039 | – | –
[Li] [Lithium] | 246 | – | – | – | – | – | – | 304 | 1.24 | similarly small associations | 92 | 1.38 | 127 | – | –
Naltrexone | 504 | – | – | – | 444 | 1.21 | 536 | 605 | 1.20 | – | – | – | – | – | –
COC(=O)N[C@H](C(=O)N1CCC[C@H]1c1nc2cc(F)c([C@H]3CC[C@H](c4cc5[nH]c([C@@H]6CCCN6C(=O)[C@@H](NC(=O)OC)[C@@H](C)OC)nc5cc4F)N3c3cc(F)c(N4CCC(c5ccc(F)cc5)CC4)c(F)c3)cc2[nH]1)[C@@H](C)OC [Pibrentasvir, pibrentasvir] | 16 | 4 | 3.52 | 14 | 14 | 2.21 | 30 | 33 | 2.09 | – | 5 | 3.09 | 14 | – | 2.09
CC(C)OC(=O)[C@H](C)N[P@](=O)(OC[C@H]1O[C@@H](n2ccc(=O)[nH]c2=O)[C@](C)(F)[C@@H]1O)Oc1ccccc1 [sofosbuvir] | – | – | – | – | – | – | – | – | – | Neither sofosbuvir nor ledipasvir were associated with a significantly higher than expected improvement | – | – | – | – | –
Cholecalciferol | 2470 | – | – | – | 2070 | 1.08 | 2238 | 2647 | 1.07 | – | – | – | – | – | –
CN1CCCC1c1cccnc1 (stereo not shown) [Nicotine] | 2109 | 522 | 1.17 | 610 | 1736 | – | 2007 | 2371 | 1.13 | – | – | – | – | – | –
CN1CCN2c3ncccc3Cc3ccccc3C2C1 (stereo not shown) [Mirtazapine] | – | – | – | – | – | – | – | – | – | – | 755 | 1.13 | 849 | – | –
Naloxone | 312 | – | – | – | 279 | 1.35 | 376 | 426 | 1.37 | – | – | – | – | – | –
CNCC[C@@H](Oc1ccccc1C)c1ccccc1 [Atomoxetine] | 74 | – | – | – | 65 | 1.41 | 92 | 104 | 1.40 | – | – | – | – | – | –
Cc1ncc(C[n+]2csc(CCO)c2C)c(N)n1 [Thiamine] | 351 | – | – | – | 304 | 1.24 | 377 | 444 | 1.27 | – | 106 | 1.38 | 146 | – | –
Fluoxetine | 1571 | – | – | – | – | – | – | 1716 | 1.09 | similarly small associations | – | – | – | – | –
Nc1nc2ncc(CNc3ccc(C(=O)N[C@@H](CCC(=O)O)C(=O)O)cc3)nc2c(=O)[nH]1 [Folic Acid] | 445 | – | – | – | 391 | 1.20 | 469 | 567 | 1.27 | – | 134 | 1.38 | 185 | – | –
COc1ccc2[nH]cc(CCNC(C)=O)c2c1 [Melatonin] | 1161 | – | – | – | 1033 | 1.10 | 1131 | 1295 | 1.12 | – | – | – | – | – | –
Sertraline | 4025 | – | – | – | 3434 | – | 3909 | 4659 | – | – | – | – | – | – | –
Quetiapine | – | – | – | – | – | – | – | – | – | – | 371 | 1.24 | 460 | – | –
